The source of these data is article PMC3718742, “Proline Dehydrogenase Regulates Redox State and Respiratory Metabolism in Trypanosoma cruzi” (PLoS ONE, 2013).

By Km is commonly meant the substrate concentration at which the rate is half of its maximum.

One series deals with T1, recombinant TcPRODH (Trypanosoma cruzi, UniProt Q4CVA1).
T1 construct: gene Tc00.1047053506411.30; dimer (native gel of mitochondria, 140 kDa)
T1 sequence (Q4CVA1 17-566): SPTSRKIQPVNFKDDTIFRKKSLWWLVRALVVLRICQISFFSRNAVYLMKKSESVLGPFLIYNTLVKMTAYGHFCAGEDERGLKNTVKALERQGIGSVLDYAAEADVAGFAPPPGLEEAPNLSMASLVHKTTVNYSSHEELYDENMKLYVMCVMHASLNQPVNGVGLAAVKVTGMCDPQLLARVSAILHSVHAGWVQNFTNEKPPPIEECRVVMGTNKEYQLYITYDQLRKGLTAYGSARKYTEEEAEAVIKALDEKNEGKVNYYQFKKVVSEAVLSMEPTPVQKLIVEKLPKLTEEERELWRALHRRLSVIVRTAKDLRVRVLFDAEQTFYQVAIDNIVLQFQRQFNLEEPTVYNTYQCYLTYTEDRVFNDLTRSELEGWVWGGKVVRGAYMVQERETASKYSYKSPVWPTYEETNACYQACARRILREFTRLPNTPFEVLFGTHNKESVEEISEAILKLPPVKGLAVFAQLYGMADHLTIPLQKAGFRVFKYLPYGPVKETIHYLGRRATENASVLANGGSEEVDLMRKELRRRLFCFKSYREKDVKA
In words: UV-visible spectrum of purified enzyme; cofactor dependence of activity. The settings on record: flavin peaks at 370 and 450 nm; NAD+ and NADP+ not accepted. The series is classed as biochemical.

Substrate in the series “purified protein”: O=C(O)[C@@H]1CCCN1
In words: purified protein. The settings on record: DCPIP/phenazine methosulfate acceptor, MOPS, MgCl2, glycerol, pH 7.5, error printed as ±1.69 in text (b1).

Regarding `Cc1cc2nc3c(=O)[nH]c(=O)nc-3n(C[C@H](O)[C@H](O)[C@H](O)COP(=O)(O)OP(=O)(O)OC[C@H]3O[C@@H](n4cnc5c(N)ncnc54)[C@H](O)[C@@H]3O)c2cc1C` [FAD], the “UV-visible spectrum of purified enzyme; cofactor dependence of activity” value at recombinant TcPRODH was “purified enzyme had a typical flavoprotein absorbance spectrum, characterized by two flavin absorption peaks”.

B1: recombinant TcPRODH (Trypanosoma cruzi strain CL Brener) (protein)
chain: SPTSRKIQPVNFKDDTIFRKKSLWWLVRALVVLRICQISFFSRNAVYLMKKSESVLGPFLIYNTLVKMTAYGHFCAGEDERGLKNTVKALERQGIGSVLDYAAEADVAGFAPPPGLEEAPNLSMASLVHKTTVNYSSHEELYDENMKLYVMCVMHASLNQPVNGVGLAAVKVTGMCDPQLLARVSAILHSVHAGWVQNFTNEKPPPIEECRVVMGTNKEYQLYITYDQLRKGLTAYGSARKYTEEEAEAVIKALDEKNEGKVNYYQFKKVVSEAVLSMEPTPVQKLIVEKLPKLTEEERELWRALHRRLSVIVRTAKDLRVRVLFDAEQTFYQVAIDNIVLQFQRQFNLEEPTVYNTYQCYLTYTEDRVFNDLTRSELEGWVWGGKVVRGAYMVQERETASKYSYKSPVWPTYEETNACYQACARRILREFTRLPNTPFEVLFGTHNKESVEEISEAILKLPPVKGLAVFAQLYGMADHLTIPLQKAGFRVFKYLPYGPVKETIHYLGRRATENASVLANGGSEEVDLMRKELRRRLFCFKSYREKDVKA
As for B1, the Km in “purified protein” was 16.58 ± 6.08 µM.
